Here are results for four compounds from PMC11110755, “Structure-based virtual screening of unbiased and RNA-focused libraries to identify new ligands for the HCV IRES model system” (RSC Medicinal Chemistry, 2024).

One may read the IC50 as the concentration that gives 50% inhibition. One may read the EC50 as the concentration at which the effect is half-maximal. For orientation: Kd means the constant that tells how readily two partners part at equilibrium.

The test system of data set [1] is HCV IRES. The arrangement: method as in PMID 10866369. As to conditions: previously reported, Fig. 1; cited from earlier work.
Data set [2] relates to HCV IRES. The arrangement: method as in PMID 15380215. As to conditions: previously reported, Fig. 1; read-out: IC50 (Luciferase reporter gene assay); cited from earlier work. (Reporter assays use an easily measured gene product as a stand-in for the process of interest.)
Data set [3] concerns HCV IRES subdomain IIa. The arrangement: method as in PMID 20564282. The conditions noted are these: previously reported, Fig. 1; read-out: EC50 (2-AP assay); cited from earlier work.
Another data set deals with cellular replicon. The arrangement: method as in PMID 16279767. As to conditions: cited from earlier work.
Data set [4] deals with HCV IRES subdomain IIa. The arrangement: method as in PMID 16279767, PMID 24930829, PMID 27775338. As to conditions: previously reported, Fig. 1; read-out: EC50 (FRET assay); cited from earlier work.
The subject of data set [5] is Tte preQ1-Riboswitch aptamer domain. Kind of data set: MST off-target counter screen, preQ1-riboswitch aptamer domain. The conditions noted are these: 1000, 100, 10 and 0.001 μM. It counts as binding, Thermoanaerobacter tengcongensis. How it is done: (§1) Off-target counter screens by MST were performed as described previously.[31,84] Briefly, the 5′-Cy5-labelled Tte preQ1-Riboswitch aptamer domain (Biomers.net GmbH) was heated to 75 °C for 5 min, cooled down to room temperature for at least 20 min and then diluted to 20 nM in MST buffer (50 mM Tris-HCl pH 7.5, 100 mM KCl, 25 mM MgCl2) and supplemented with compounds 4, 5, 8–13, 18, 21, 22 and 26 to final concentrations of 1000, 100, 10 and 0.001 μM. PreQ1 was used as a positive control. The 5′-Cy5-labelled B. angulatum SAM VI-Riboswitch aptamer domain (Eurofins Genomics GmbH) was heated to 75 °C for 5 min, cooled down to room temperature for at least 20 min and then diluted to 20 nM in MST buffer (50 mM Tris-HCl pH 7.5, 100 mM KCl, 25 mM MgCl2) and supplemented with compounds 5, 9 and 28 to final concentrations of 1000, 100, 10 and 0.001 μM. SAM was used as a positive control. For each experiment, one DMSO negative control was carried out. The final DMSO concentration was 2%. All measurements were performed at least as duplicates for pre-screening and triplicates for KD-determination. MST measurements were analyzed from signals after 18 s laser on-time using the MO.Affinity Analysis software (version 2.3) and exported for statistical analysis and plotting in GraphPad Prism (version 8.0.1., GraphPad Software, Boston, Massachusetts USA, https://www.graphpad.com).
(In general: Counterscreens check selectivity or assay interference.)

In data set [6] the test system is HCV IRES subdomain IIa. Description: FRET assay monitoring ligand-induced conformational change of Cy3/Cy5-labelled HCV IRES subdomain IIa. The class given is biochemical, hepatitis C virus. The conditions noted are these: 100 nM Cy3/Cy5-labelled RNA, 10 mM HEPES pH 7.0, 2 mM MgCl2, 2% DMSO; ≥ = lower limit. The procedure:
For the FRET assay, a two stranded HCV IRES subdomain IIa carrying a 5′-Cy3-label on one and 5′-Cy5-label on the other strand (Cy3-[…], Cy5-[…], Biomers.net GmbH) was used as described previously.[22,53] All samples containing labelled RNA were treated under light protection. FRET experiments were performed on a Tecan Spark 10 M plate reader (excitation/emission: 480/670 nm) using black half area 96 well microplates (Greiner Bio-One), based on a protocol by Zhou et al.[53] The 5′-Cy3- and 5′-Cy5-labelled single strands were annealed by heating to 75 °C in FRET buffer (10 mM HEPES pH 7.0, 2 mM MgCl2) and cooled down to room temperature for at least 20 min. The 5′-Cy3/Cy5-labelled RNA was diluted to 100 nM in FRET buffer and supplemented with compounds 8–28 in appropriate concentrations. Compounds 4 and 5 were used as positive controls. For the initial screening, compounds were added in final concentrations of 1000, 100, 10 and 0.001 μM (Fig. S4 ^†). If a concentration dependent reduction of the FRET signal (Cy5-emission) was observed, EC50-values were determined using ligand concentrations from 1 mM to 100 nM in 3.16-fold (semi-logarithmic) dilution series. For those compounds, the Cy3 emission was measured at 535 nm to confirm a conformational change dependent reduction in the Cy5 emission signal via Cy3 emission increase (Fig. S7 ^†). For each experiment, one DMSO negative control was carried out. The final DMSO concentration was always 2%. Excitation and emission spectra were recorded for the Cy3/Cy5-labelled RNA (100 nM) in FRET buffer to confirm excitation (Cy3) and emission (Cy5) wavelength as well as for each compound (1 μM) in FRET buffer to exclude any interference with the cyanine dyes. All measurements were performed at least as triplicates for screening and EC50-determination.
FRET experiments were analyzed using GraphPad Prism (version 8.0.1., GraphPad Software, Boston, Massachusetts USA, https://www.graphpad.com).

For data set [7], the target named is HCV IRES subdomain IIa. The arrangement: method as in PMID 16279767. The conditions noted are these: previously reported; read-out: KD (MS assay); cited from earlier work.
For data set [8], the system named is SAM VI-Riboswitch aptamer domain. Description: MST off-target counter screen, SAM VI-riboswitch aptamer domain. The conditions noted are these: 1000, 100, 10 and 0.001 μM. It counts as binding, B. angulatum. The procedure:
as §1

The target of data set [9] is HCV IRES subdomain IIa. It counts as binding, hepatitis C virus. The conditions noted are these: 30 nM Cy5-labelled RNA, 10 mM HEPES pH 7.0, 2 mM MgCl2, 2% DMSO; ≥ = no saturation; n.b. no binding observed; read-out: MST KD. How it is done:
For the MST assay, the same sequence of the two stranded HCV IRES subdomain IIa as for the FRET assay was used. One strand was 5′-Cy5-labelled and the other strand was unmodified ([…], Cy5-[…], Biomers.net GmbH). All samples containing labelled RNA were treated under light protection. MST experiments were performed on a Monolith NT.115 from NanoTemper Technologies using standard uncoated capillaries. The strands were annealed by heating to 75 °C in MST buffer (10 mM HEPES pH 7.0, 2 mM MgCl2) and cooled down to room temperature for at least 20 min. The 5′-Cy5-labelled HCV IRES domain IIa RNA was diluted to 30 nM in MST buffer and supplemented with compounds 8–25 in appropriate concentrations. Compounds 4 and 5 were used as positive controls. For the initial screening, compounds were added to final concentrations of 1000 (or 316 if limited by solubility), 100, 10 and 0.001 μM (Fig. S5 ^†). If a concentration-dependent shift of thermophoresis was observed, KD-values were determined using concentrations ranging from 1 mM (if permitted by solubility, otherwise starting from 316 or 100 μM) to 0.01 μM in a 3.16-fold (semi-logarithmic) dilution series. For each experiment, one DMSO negative control was carried out. Final DMSO concentration was always 2%.
as §1

In brackets after ≈: the same amount, converted by molar mass. Entries after “also recorded” stand apart in the source; their conditions may differ. Read-outs that look alike come from different tables or passages of the source.

Consider `Cc1cc2nc3ccc(N(C)C)cc3nc2cc1N` [Compound 1], for which the “IC50 (Fluci reporter gene assay)” value with HCV IRES [1] is 0.02 µg/mL (≈ 0.0793 µM).
On to `Cc1nc(/N=C(\N)NCCc2ccccc2)nc(C)c1OCCCN(C)C` [Compound 2], for which the IC50 in the data set on HCV IRES [2] was 2.1 µM.
`CC(=O)c1ccc(C(=O)N[C@@H](CCCCN)C(=O)N2C[C@H](N)C[C@H](N)C2)cc1` [Compound 3]: the EC50 with HCV IRES subdomain IIa [3] was 270 µM.
As to `CN(C)CCCn1c(N)nc2ccc3c(c21)CC(CN(C)C)CO3` (centres unmarked) [Compound 5], the “antiviral activity in cellular replicon assay, in words” value in the data set with cellular replicon was “antiviral activity”. The “toxicity in cellular replicon assay, in words” value with cellular replicon is given as “minimal toxicity”. Also, the values for the EC50 in the data set on HCV IRES subdomain IIa [4] and in the data set with HCV IRES subdomain IIa [6] were 3.4 µM and 4.9 ± 2.6 µM, respectively. In addition, the “preQ1-riboswitch binding / selectivity (MST-shift), in words” value in data set [5] is recorded as “Weak preQ1-riboswitch binding; also recorded: binding to the preQ1-riboswitch at very high concentrations”. For the same compound, the figures for the Kd at HCV IRES subdomain IIa [7] and at HCV IRES subdomain IIa [9] were 0.86 µM and 5.2 ± 0.8 µM, respectively. Besides, in data set [8], the “SAM-VI-riboswitch binding (MST-shift), in words” value was “no binding; also recorded: no MST shift”.
